How the values were obtained:
[1] = Metabolic stability in monkey liver microsomes; type: in vitro ADME
[2] = Stability in human plasma; type: in vitro ADME
Description: (§1) For the DMPK studies of the compound 8a-d we used rat as well as human plasmas. Rat plasma was purchased from Hylasco Biotechnology Pvt. Ltd.™ Hyderabad, India. We have not performed any in vivo experiments for this manuscript neither for animals nor for humans. […] Also please note the blood plasma was obtained from the blood of Dr Srinivas R Maddi, who donated it and is the co-author of this article. The DMPK studies were supplemented by kinetic solubility, Log p and Log D determinations, PAMPA permeability, Metabolic and Plasma stability in rat and human, and finally the plasma folding in rat and human. A thorough discussion of each step is mentioned in the supplementary information. […]
Stability in rat and human plasma: Plasma stability is defined as the percentage of parent compound lost over time. The frozen plasma was thawed at room temperature and centrifuged at 1400 rpm 4 ℃, for 15 minutes. Approximately 90% of the clear supernatant fraction was transferred to a separate tube and was used for assay. The incubation mixtures consisted of human and rat palsma and compound (1 μM) or positive control (propanthelin, 1 μM) and incubated for 120 min at 37℃ in shaker with 500 rpm. All reactions were terminated using 200 μL of ice-cold acetonitrile containing internal standard (150 ng/mL of telmisartan) at 0, 15, 30, 60 and 120 min and centrifuged at 4000 rpm (Eppendorf, Germany) for 20min. The supernatants thus obtained were analyzed on LC-MS/MS to monitor the disappearance of compound. […]

[3] = Log D determination (octanol/buffer); type: physicochemical; conditions: phosphate buffer at pH 7.4
Description: For the DMPK studies of the compound 8a-d we used rat as well as human plasmas. Rat plasma was purchased from Hylasco Biotechnology Pvt. Ltd.™ Hyderabad, India. We have not performed any in vivo experiments for this manuscript neither for animals nor for humans. […] Also please note the blood plasma was obtained from the blood of Dr Srinivas R Maddi, who donated it and is the co-author of this article. The DMPK studies were supplemented by kinetic solubility, Log p and Log D determinations, PAMPA permeability, Metabolic and Plasma stability in rat and human, and finally the plasma folding in rat and human. A thorough discussion of each step is mentioned in the supplementary information.
20 µL of IDO1/TDO2 protein (1µg/ml concentration) was added and incubates for 10 min. After that 20 µL of 2 mM L-tryptophan was added and then treated with different test compounds concentration (10 µM, 5 µM, 1 µM, 500 nM, 250 nM). The plate was then sealed well for 2hr incubation process at 37°C. […] The 100 µL of supernatant was transferred in fresh 96 well plate and treated with 100 µL of freshly prepared 2% Ehlrich reagent which was then analyzed by absorbance plate reader at 492 nm to measure the extent of kynurenine formation. […] The IC50 values were calculated in triplicate by using GraphPadPrism Software (GraphPadPrism. Version 5.01 program).22, 23 […]
Log P determination: The partition coefficient was determined by adding compounds to 2 mL deep well plate containing Octanol/water mixture and vortexed the plate for 2 hours at 1200 rpm on a plate shaker. […] Octanol and buffer layers were analysed by HPLC -UV by adjusting the needle height for each Octanol and buffer and the amount of compound distributed i nto each phase was calculated
Log D determination: The distribution coefficient was determined by adding compounds to 2 mL deep well plate containing Octanol/Buffer mixture and vortexed the plate for 2 hours at 1200 rpm on a plate shaker. […]
adjusting the needle height for each Octanol and buffer and the amount of compound distributed into each phase was calculated. […]

[4] = Plasma protein binding in rat plasma (rapid equilibrium dialysis); type: in vitro ADME; conditions: for Rat plasma protein binding %Ge bound / Rat plasma protein binding %Ge free: 10 μM; for fraction unbound at 10 μM: pH 7.4
Description: as §1
Plasma protein binding in rat and human plasma: To evaluate the ability of compound to bind the plasma proteins, the most common approach of plasma protein binding using rapid equilibrium dialysis device ( RED inserts) used. Compounds were tested at a final concentration of 10 μM in mouse, rat and human plasma. An aliquot of 500 μL plasma containing compound 3k was added in first half (plasma side) of the well of RED device. An aliquot of 300 μL of 100 mM sodium phosphate buffer pH 7.4 was added in the second half (buffer side) of the Insert. The plate containing plasma and […]

[5] = Metabolic stability in rat liver microsomes; type: in vitro ADME; conditions: for Rat liver microsomal stability % QH (hepatic extraction ratio): rat liver microsomes; for Clearance in animal microsomes: animal microsomal data among rat, dog and monkey
Description: Metabolic stability in mouse, rat and human liver microsomes: Metabolic stability was defined as the percentage of parent compound lost over time in the presence of a metabolically active test system.
The incubation mixtures consisted of liver microsomes 1.0 mg microsomal protein /mL , compound 1 uM or positive control verapamil, 1 uM . The reactions were initiated by adding 1 mM NADPH.
Reactions without NADPH at 0 and 60 min were also incubated to rule out non-NADPH metabolism or chemical instability in the incubation buffer. All reactions were terminated using 200 uL of ice-cold acetonitrile containing internal standard 200 ng/mL of telmisartan at 0, 5, 15, 30 and 60 min. The vials were centrifuged at 4000 rpm for 20 min. The supernatants thus obtained were analyzed on LC-MS/MS to monitor the disappearance of compound. […]

Compound | Monkey liver microsomal stability % QH (hepatic extraction ratio) [1] [%] | Human plasma stability %Ge remaining after 120 min [2] [%] | logD [3] | Rat plasma protein binding %Ge bound [4] [%] | Rat plasma protein binding %Ge free [4] [%] | fraction unbound at 10 μM [4] | Rat liver microsomal stability % QH (hepatic extraction ratio) [5] [%] | Clearance in animal microsomes [5]
CC(=O)NCCc1c(C(=O)c2cc(C(F)(F)F)cc(C(F)(F)F)c2)[nH]c2ccccc12 [8a] | 97 | 84.5 | 1.32 | 97.3 | 2.7 | 0.027 | 12.6 | 
COC(=O)NCCc1c(C(=O)c2ccccc2)[nH]c2ccccc12 [8e] | 96 | 108.3 | 2.95 | 95.9 | 4.1 | 0.041 | 14.9 | low to moderate clearance
CC(=O)NCCc1c(C(=O)c2ccc([N+](=O)[O-])cc2)[nH]c2ccccc12 [8d] | 74 | 85.0 | 1.51 | 82.1 | 17.9 | 0.179 | 2.2 | low to moderate clearance
